From US20230134986A1, “GLUCOSE TRIPTOLIDE CONJUGATES AND USES THEREOF” (The Johns Hopkins University, priority 2020, published 2023)
Entries after “also recorded” stand apart in the source; their conditions may differ.

Key:
HEK 293T cells = assay: HEK293T cell proliferation assay ([3H]-thymidine incorporation); format: cell-based, human; conditions: for IC50: Homo sapiens, HEK-293T, 24 h, read-out: IC50 ± SEM
Text: Cells and culture conditions. Primary astrocytes (Lonza, Walkersville, Md.; ABM™ Basal Media with AGM™ SingleQuots™ Supplement Pack), fibroblast (ATCC; Fibroblast Basal Medium (ATCC© PCS-201-030™) with Fibroblast Growth Kit-Serum-free (ATCC© PCS-201-040™)), airway epithelial cell (ATCC; Airway Epithelial Cell Basal Medium (ATCC© PCS-300-030™) with Bronchial Epithelial Cell Growth Kit (ATCC© PCS-300-040™)), renal proximal tubule (ATCC; Renal Epithelial Cell Basal Medium (ATCC© PCS-400-030™) with Renal Epithelial Cell Growth Kit (ATCC© PCS-400-040™)), prostate epithelial cell (Lonza; PrEGM™ BulletKit™) and mammary epithelial cell (Lonza; MEBM™ BulletKit™) were kept in a humidified incubator at 37° C. adjusted to 5% CO2. Prostate (PC3, LNCaP, DU-145), breast (MDA-MB-231, MDA-MB-453, SK-BR-3), head and neck (A253, Detroit 562, SCC-25), melanoma (SK-Mel-3, SK-Mel-1, RPMI-7951), pancreatic (CfPAC-1, BxPC3, SW1990), lung (A549, NCI-H1299, NCI-H1437) and liver (SNU-475, SK-HEP-1, SNU-387) cancer cell lines were obtained from ATCC and cultured in their respective media (prostate cells: RPMI-1640, MDA-MB-231: RPMI-1640, MDA-MB-453: Leibovitz's L-15, SK-BR-3: McCoy's 5a, A253: McCoy's 5a, Detroit 562: EMEM, SCC-25: DMEM, SK-Mel-3: McCoy's 5a, SK-Mel-1: EMEM, RPMI-7951: EMEM), CfPAC-1: IMDM, BxPC3: RPMI-1640, SW1990: Leibovitz's L-15), A549: F-12K, NCI-H1299: RPMI-1640, NCI-H1437: RPMI-1640, SNU-475: RPMI-1640, SK-HEP-1: EMEM, SNU-387: RPMI-1640. All media were supplemented with 10% (vol/vol) filtered fetal bovine serum (FBS, Invitrogen, Carlsbad, Calif.), 1% penicillin/streptomycin (Invitrogen) and maintained in a humidified incubator at 37° C. with 5% CO2 except for MDA-MB-453 and SW1990 grown at 37° C. without CO2 control. Wild type (ATCC) and C342T XPB knock-in cells (named T7115) of Human Embryonic Kidney 293T (HEK293T), HeLa (ATCC) were cultured in DMEM (GIBCO) with 10% (vol/vol) filtered fetal bovine serum (FBS, Invitrogen, Carlsbad, Calif.), 1% penicillin/streptomycin (Invitrogen).
Proliferation and viability assays. [^3H]-thymidine incorporation. HEK293T cells (10,000 cells/well) were seeded into 96-well plates then cultured in DMEM plus 10% FBS and 1% penicillin/streptomycin at 37° C. with 5% CO2 overnight. Drugs were added at indicated concentrations and incubation was continued for an additional 24 h. For hypoxia, PC3 (5,000 cells/well) were exposed to 1% O2 (Airgas) in a humidified hypoxia chamber (Billups-Rothenberg) in 37° C. for 48 h prior to drug exposure for 48 h. Treated cells were then pulsed using an aliquot of 1 μCi of [^3H]-thymidine (Perkin Elmer) per well for an additional 6 h. Radiolabelled cells were harvested onto a printed Filtermat A glass fiber filter (Perkin Elmer) using a Tomtec Harvester 96 Mach III M. Betaplate Scint (Perkin Elmer) scintillation fluid was added to radiolabelled filters followed by scintillation counting on Microbeta2 LumiJET Microplate Counter (Perkin Elmer).

LNCaP = assay: XTT viability assay, LNCaP; format: cell-based; conditions: Homo sapiens, Prostate Cancer
Text: (§1) Cells and culture conditions. Primary astrocytes (Lonza, Walkersville, Md.; ABM™ Basal Media with AGM™ SingleQuots™ Supplement Pack), fibroblast (ATCC; Fibroblast Basal Medium (ATCC© PCS-201-030™) with Fibroblast Growth Kit-Serum-free (ATCC© PCS-201-040™)), airway epithelial cell (ATCC; Airway Epithelial Cell Basal Medium (ATCC© PCS-300-030™) with Bronchial Epithelial Cell Growth Kit (ATCC© PCS-300-040™)), renal proximal tubule (ATCC; Renal Epithelial Cell Basal Medium (ATCC© PCS-400-030™) with Renal Epithelial Cell Growth Kit (ATCC© PCS-400-040™)), prostate epithelial cell (Lonza; PrEGM™ BulletKit™) and mammary epithelial cell (Lonza; MEBM™ BulletKit™) were kept in a humidified incubator at 37° C. adjusted to 5% CO2. […]
(§2) XTT assay. […] Cell viability was measured using the R&D Systemsm TACS XTT Cell Proliferation/Viability Assay (R&D Systems, Minneapolis, Minn.).

MDA-MB-231 = assay: XTT viability assay, MDA-MB-231; format: cell-based; conditions: Homo sapiens; Breast Cancer, MDA-MB-231, XTT
Text: as §1, §2

MDA-MB-453 = assay: XTT viability assay, MDA-MB-453; format: cell-based; conditions: Homo sapiens; Breast Cancer, MDA-MB-453, XTT
Text: as §1, §2

NCI-H1299 = assay: XTT viability assay, NCI-H1299; format: cell-based; conditions: Homo sapiens, Lung Cancer
Text: as §1, §2

[1] = tested on: PC3 prostate cancer cells expressing firefly luciferase; assay: Experimental metastatic prostate cancer mouse model (PC3/ML/fluc, tail vein); format: in vivo; conditions: for tumor cells by bioluminescence imaging: 1 mg/kg daily for 30 days; for Median survival time: i.p. once daily for 30 days
Experimental: In vivo tumor xenograft assay. Animal experiments were performed following the protocols approved by the Johns Hopkins University Animal Care and Use Committee. The experimental murine model of human prostate cancer metastasis used in this study was generated as previously described. (Bhatnagar et al. (2014) Cancer Res. 74:5772-81) Briefly, four-to six-week-old, male NOD/SCID/IL2R^γnull (NSG, purchased from Animal Resources Core, JHU) were injected with a million PC3/ML/fluc cells via tail vein. Tumor formation was confirmed by bioluminescence imaging (BLI) using the IVIS Spectrum Imaging System (Caliper Life Sciences, Hopkinton, Mass.) three weeks after injection and the mice were given indicated doses of drug once daily (intraperitoneal injection) for 30 days. Tumor progression was then monitored weekly by BLI and survival monitored concurrently.

[2] = tested on: DLD-1 GLUT1 knockout (GLUT1 KO) cells; assay: DLD-1 GLUT1 knockout proliferation under hypoxia or normoxia; format: cell-based, human
HepG2 = HepG2 proliferation under hypoxia ([3H]-thymidine incorporation); format: cell-based, human; conditions: HepG2, 1% O2, 48 h post treatment
[3] = 1 mg/kg, days after initiation of treatment

SMILES	IC50 (HEK 293T cells) [nM]	IC50 (LNCaP) [nM]	IC50 (MDA-MB-231) [nM]	IC50 (MDA-MB-453) [nM]	IC50 (NCI-H1299) [µM]	tumor cells by bioluminescence imaging [1]	Median survival time [1, 3] [days]	fold more potent against cancer cells in vitro than compound 10 (HEK 293T cells; in vitro) [fold]	IC50 ([2]; Homo sapiens, DLD-1, GLUT1 knockout cell line, hypoxic conditions (1% oxygen)) [nM]	difference in sensitivity between DLD-1 WT and GLUT1 KO ([2]; normoxia (20% oxygen))	effect of hypoxia on anti-proliferative effect (HepG2)	Median survival time ([1]; 0.25 mg/kg) [days]	Median survival time ([1]; 0.5 mg/kg) [days]	longest survival ([1]; 1 mg/kg treatment group, versus 26 days for untreated group) [days]
CC(C)[C@]12O[C@H]1[C@@H]1O[C@]13[C@]1(O[C@H]1C[C@H]1C4=C(CC[C@@]13C)C(=O)OC4)[C@@H]2OC(=O)CCC(=O)O[C@@H]1OC(CO)[C@@H](O)C(O)C1O (stereo partly drawn) [Compound 10]	279 ± 0.611	560 ± 90	280 ± 10	530 ± 200	6.4 ± 2.43	tumor cells were cleared by week 2 of treatment	76	–	–	–	–	–	–	–
CC(C)[C@]12O[C@H]1[C@@H]1O[C@]13[C@]1(O[C@H]1C[C@H]1C4=C(CC[C@@]13C)C(=O)OC4)[C@@H]2OC(=O)CCCO[C@@H]1OC(CO)[C@@H](O)C(O)C1O (stereo in doubt) [Compound 1]	71	450 ± 330	260 ± 100	530 ± 280	11.5 ± 5.51	undetectable levels of cancer cells two weeks after cessation of treatment	84	4	2500	no difference in sensitivity	resistance; also recorded: remains resistant	46	76	86
